Results on five molecules are retold here after publication PMC8155856, “Synthesis and Characterization of Radiogallium-Labeled Cationic Amphiphilic Peptides as Tumor Imaging Agents” (Cancers, 2021).

The structures appear in SMILES notation. Non-standard residues stand in square brackets, D forms with d. Residues, ends and D or L forms follow the SMILES beside them. *: point of attachment. FITC = O=C1OC2(c3ccc(O)cc3Oc3cc(O)ccc32)c2ccc(NC(=S)*)cc21; NOTA = O=C(O)CN1CCN(CC(=O)O)CCN(CC(=O)*)CC1; Ahx = NCCCCCC(=O)O

In general, tissue uptake refers to the percentage of the injected dose found per gram of tissue.

Data set [1] has as its system KB cells. The experiment in a line: Cellular uptake of FITC-CAPs. Particulars: 1 μM, 37 °C, 2 h post-incubation, heparin/PBS wash, lysate fluorescence; mean ± SEM, n = 7–13. In kind it is cell-based. As for the experimental part:
(§1) Epidermoid carcinoma KB cells were provided by DS Pharma Biomedical Co., Ltd. (Suita, Japan). Mouse fibroblast-like 3T3-L1 cells were obtained from the JCRB Cell Bank (Tokyo, Japan). KB cells were cultured in Eagle’s minimal essential medium supplemented with 10% fetal bovine serum. The 3T3-L1 cells were grown in Dulbecco’s modified Eagle’s medium supplemented with 10% bovine calf serum. All media were supplemented with 100 IU/mL penicillin and 100 μg/mL streptomycin. The cells were maintained in a humidified atmosphere containing 5% CO2 at 37 °C.
(§2) Each cell line was grown to confluence in a 12-well plate and washed with PBS. FITC-CAPs (1 μM) or ^67Ga-NOTA-CAPs (1.0 kBq) (Figure S2C) in a growing medium (0.6 mL) were added to each cell and incubated at 37 °C for each time point. After incubation, the cells were washed twice with 20 units of heparin/PBS (0.5 mL) and lysed using cell lysis buffer M from Fujifilm Wako (Osaka, Japan) at 37 °C for 20 min. The radioactivity and fluorescence of the lysates was measured using a gamma counter and fluorescence microplate reader, respectively, and the protein concentration was determined using a Bradford protein assay kit (Bio-Rad, Hercules, CA, USA). Data are expressed as percentage uptake per milligram of protein (% uptake/mg protein).

Data set [2] relates to KB cells. The data set is described as follows: Confocal fluorescence microscopic imaging of FITC-CAPs. The data set is classed as cell-based. Particulars: 10 µM, 1 h, confocal laser scanning microscope. As to the method:
(§3) KB and 3T3-L1 cells were cultured on 8-well chambered cover glasses (Iwaki, Tokyo, Japan) and incubated with FITC-CAPs (10 μM) for 1 h. The medium was removed and cells were washed twice with ice-cold PBS containing heparin (20 units/mL) and twice with ice-cold PBS. Subsequently, the cells were incubated with Hoechst 33342 (2.5 µg/mL) for 30 min and then washed twice with ice-cold PBS. Fluorescent images were captured using a confocal laser scanning microscope (LSM710, Carl Zeiss Inc., Jena, Germany) with excitation wavelengths of 405 nm (UV laser) for Hoechst 33342 and 488 nm (Ar laser) for FITC-CAPs.

The test system of data set [3] is 3T3-L1 cells. The experiment in a line: Cellular uptake of FITC-CAPs. In kind it is cell-based, mouse. The following applies: 1 μM; for Difference in FITC-CAP uptake between KB and 3T3-L1 cells (specificity for cancer cells): 2 h, ANOVA with Tukey's test. As for the experimental part: as §1, §2
Data set [4] deals with 3T3-L1 cells. The experiment in a line: Confocal fluorescence microscopic imaging of FITC-CAPs. In kind it is cell-based, mouse. The following applies: 10 µM, 1 h, confocal laser scanning microscope. As to the method: as §3
Data set [5] can be described thus: In vitro stability in mouse plasma. Particulars: freshly prepared mouse plasma, 37 °C, 1 h, 10 μL tracer + 90 μL plasma, CH3CN precipitation, HPLC; mean (SEM) of three experiments.
Experimental: The in vitro stability of ^67Ga-NOTA-CAPs in phosphate-buffered saline (PBS) and mouse plasma was analyzed according to a previously reported procedure [29, 30, 31]. In brief, each radiotracer (10 μL; 2.0–3.0 MBq) was added to PBS (90 μL) and incubated at 37 °C for 24 h or to freshly prepared mouse plasma (90 μL) and incubated at 37 °C for 1 h. […] The mouse plasma solution was added to ice-cold CH3CN (300 μL) and centrifuged at 9400 rcf for 4 min. The supernatant was filtered through a 0.22 μm membrane before HPLC analysis.
The subject of data set [6] is KB tumor-bearing mice. The experiment in a line: Biodistribution in tumor-bearing mice. Particulars: 30 min after administration, KB xenograft, i.v.; mean (SD) of 4–6 mice.
Experimental: (§4) BALB/c nu/nu mice (female; 4 weeks old) were supplied by Japan SLC Inc. (Shizuoka, Japan). The mice were maintained in a room at a constant ambient temperature and a 12/12 h light/dark cycle, and they were given free access to food and water. Mice were subcutaneously injected on their right shoulders with approximately 1.0 × 10^7 KB cells. The tumors were allowed to reach 300–500 mm^3 (1‒2 weeks after inoculation) before biodistribution studies were performed.
(§5) The ^67Ga-NOTA-CAPs (10 kBq/100 μL) were intravenously injected into the mice via the tail vein. The mice were sacrificed at the designated time intervals, and the organs were dissected. The tissues were then weighed, and radioactivity was measured by automated gamma counting (n = 5).
The nature of data set [7]: Biodistribution in tumor-bearing mice. The following applies: female, BALB/c nu/nu, mouse, iv, 10 kBq/100 uL, total radioactivity.
Experimental: as §4, §5
A short description of the next data set: in vivo. The following applies: female, BALB/c nu/nu, mouse, iv, 10 kBq/100 uL, total radioactivity.
Data set [8] deals with KB tumor-bearing mice. The following applies: mouse, in vivo.
Experimental: as §4, §5

Experimental for in vivo: as §4, §5

In the case of `CC(C)[C@H](NC(=O)[C@H](Cc1c[nH]cn1)NC(=O)[C@@H](NC(=O)[C@H](Cc1c[nH]cn1)NC(=O)[C@@H](NC(=O)[C@H](Cc1c[nH]cn1)NC(=O)[C@@H](NC(=O)[C@@H]1CCCN1C(=O)[C@H]1CCCN1C(=O)[C@@H](NC(=O)[C@H](Cc1c[nH]cn1)NC(=O)[C@@H](NC(=O)[C@H](Cc1c[nH]cn1)NC(=O)[C@@H](NC(=O)[C@H](Cc1c[nH]cn1)NC(=O)[C@@H](NC(=O)[C@H](Cc1c[nH]cn1)NC(=O)CCCCCNC(=S)Nc1ccc2c(c1)C(=O)OC21c2ccc(O)cc2Oc2cc(O)ccc21)C(C)C)C(C)C)C(C)C)C(C)C)[C@@H](C)O)C(C)C)C(C)C)C(=O)N[C@@H](Cc1c[nH]cn1)C(N)=O` [FITC-HV6] ({FITC-Ahx}-HVHVHVHV[dP]PTHVHVHVH-NH2), in the data set with KB cells [1], the “Cellular uptake of FITC-CAPs into KB cells” value is recorded as 19.0% ± 0.94 % uptake/mg protein. Moreover, in the data set on KB cells [2], the “Cellular localization in KB cells” value is “also accumulated in the cytoplasm and nucleus”. Further, in the data set with 3T3-L1 cells [3], the “Difference in FITC-CAP uptake between KB and 3T3-L1 cells (specificity for cancer cells)” value is “high selectivity for cancer cells”. Moreover, the “Fluorescence signal in 3T3-L1 cells” value in the data set with 3T3-L1 cells [4] was “low fluorescence signals”.

Turning to `CC(C)[C@H](NC(=O)[C@H](CCCNC(=N)N)NC(=O)[C@@H](NC(=O)[C@H](CCCNC(=N)N)NC(=O)[C@@H](NC(=O)[C@H](CCCNC(=N)N)NC(=O)[C@@H](NC(=O)[C@@H]1CCCN1C(=O)[C@H]1CCCN1C(=O)[C@@H](NC(=O)[C@H](CCCNC(=N)N)NC(=O)[C@@H](NC(=O)[C@H](CCCNC(=N)N)NC(=O)[C@@H](NC(=O)[C@H](CCCNC(=N)N)NC(=O)[C@@H](NC(=O)[C@H](CCCNC(=N)N)NC(=O)CCCCCNC(=S)Nc1ccc2c(c1)C(=O)OC21c2ccc(O)cc2Oc2cc(O)ccc21)C(C)C)C(C)C)C(C)C)C(C)C)[C@@H](C)O)C(C)C)C(C)C)C(=O)N[C@@H](CCCNC(=N)N)C(N)=O` [FITC-RV6] ({FITC-Ahx}-RVRVRVRV[dP]PTRVRVRVR-NH2), the “Cellular uptake of FITC-CAPs into KB cells” value in the data set with KB cells [1] is 36.0% ± 2.63 % uptake/mg protein. For the same molecule, in the data set with KB cells [2], the “Cellular localization in KB cells” value is “also accumulated in the cytoplasm and nucleus”. Moreover, the “Cellular uptake of FITC-CAPs into 3T3-L1 cells” value in the data set with 3T3-L1 cells [3] (37 °C, 2 h post-incubation, heparin/PBS wash, lysate fluorescence, mean ± SEM, n = 7–13) is 26.6% ± 2.18 % uptake/mg protein. In addition, the “Difference in FITC-CAP uptake between KB and 3T3-L1 cells (specificity for cancer cells)” value with 3T3-L1 cells [3] is on record as “low specificity for cancer cells”. Moreover, the “Fluorescence signal in 3T3-L1 cells” value with 3T3-L1 cells [4] is listed as “strong fluorescence signals”.

On to `CC(C)[C@H](NC(=O)[C@H](Cc1c[nH]cn1)NC(=O)[C@@H](NC(=O)[C@H](Cc1c[nH]cn1)NC(=O)[C@@H](NC(=O)[C@H](Cc1c[nH]cn1)NC(=O)[C@@H](NC(=O)[C@@H]1CCCN1C(=O)[C@H]1CCCN1C(=O)[C@@H](NC(=O)[C@H](Cc1c[nH]cn1)NC(=O)[C@@H](NC(=O)[C@H](Cc1c[nH]cn1)NC(=O)[C@@H](NC(=O)[C@H](Cc1c[nH]cn1)NC(=O)[C@@H](NC(=O)[C@H](Cc1c[nH]cn1)NC(=O)CN1CCN(CC(=O)O)CCN(CC(=O)O)CC1)C(C)C)C(C)C)C(C)C)C(C)C)[C@@H](C)O)C(C)C)C(C)C)C(=O)N[C@@H](Cc1c[nH]cn1)C(N)=O` [^67Ga-NOTA-HV6, metal not drawn] ({NOTA}-HVHVHVHV[dP]PTHVHVHVH-NH2), for which the “In vitro stability in mouse plasma, percentage of remaining intact radiotracer” value in [5] was 23.3 (0.75) %. In addition, the Tumor uptake in the data set with KB tumor-bearing mice [6] is listed as 3.18% ± 0.36 % ID/g. Further, the tissue uptake at 2 h in data set [7] (kidney) amounted to 23 %ID/g. Also, the tissue to tissue ratio at 2 h was 3.8 in [7] (tumor/blood) and 4.01 ± 2.05 in data set [7] (tumor/muscle).

On to `CC(C)[C@H](NC(=O)[C@H](CCCCN)NC(=O)[C@@H](NC(=O)[C@H](CCCCN)NC(=O)[C@@H](NC(=O)[C@H](CCCCN)NC(=O)[C@@H](NC(=O)[C@@H]1CCCN1C(=O)[C@H]1CCCN1C(=O)[C@@H](NC(=O)[C@H](CCCCN)NC(=O)[C@@H](NC(=O)[C@H](CCCCN)NC(=O)[C@@H](NC(=O)[C@H](CCCCN)NC(=O)[C@@H](NC(=O)[C@H](CCCCN)NC(=O)CN1CCN(CC(=O)O)CCN(CC(=O)O)CC1)C(C)C)C(C)C)C(C)C)C(C)C)[C@@H](C)O)C(C)C)C(C)C)C(=O)N[C@@H](CCCCN)C(N)=O` [^67Ga-NOTA-KV6, metal not drawn] ({NOTA}-KVKVKVKV[dP]PTKVKVKVK-NH2), for which the tissue uptake at 2 h in “in vivo” came to 32.6 %ID/g; in data set [7] (kidney) it was 118 %ID/g. The “Tumor-to-blood ratio compared among tracers” value in the data set on KB tumor-bearing mice [8] is recorded as “significantly higher”. Further, the “Tumor-to-muscle ratio compared among tracers” value with KB tumor-bearing mice [8] was “significantly greater”. Further, the Tumor uptake with KB tumor-bearing mice [6] was 4.46% ± 0.58 % ID/g. In addition, the tissue to tissue ratio at 2 h was determined as 7.7 in [7] (tumor/blood) and 5.05 ± 1.51 in [7] (tumor/muscle).

Regarding `CC(C)[C@H](NC(=O)[C@H](CCCNC(=N)N)NC(=O)[C@@H](NC(=O)[C@H](CCCNC(=N)N)NC(=O)[C@@H](NC(=O)[C@H](CCCNC(=N)N)NC(=O)[C@@H](NC(=O)[C@@H]1CCCN1C(=O)[C@H]1CCCN1C(=O)[C@@H](NC(=O)[C@H](CCCNC(=N)N)NC(=O)[C@@H](NC(=O)[C@H](CCCNC(=N)N)NC(=O)[C@@H](NC(=O)[C@H](CCCNC(=N)N)NC(=O)[C@@H](NC(=O)[C@H](CCCNC(=N)N)NC(=O)CN1CCN(CC(=O)O)CCN(CC(=O)O)CC1)C(C)C)C(C)C)C(C)C)C(C)C)[C@@H](C)O)C(C)C)C(C)C)C(=O)N[C@@H](CCCNC(=N)N)C(N)=O` [^67Ga-NOTA-RV6, metal not drawn] ({NOTA}-RVRVRVRV[dP]PTRVRVRVR-NH2), the “In vitro stability in mouse plasma, percentage of remaining intact radiotracer” value in data set [5] is recorded as 27.4 (2.94) %. Also, the Tumor uptake in the data set on KB tumor-bearing mice [6] is reported as 4.76% ± 1.50 % ID/g. The tissue uptake at 2 h in [7] (kidney) was 26.9 %ID/g; in data set [7] (liver), 53.8 %ID/g. Moreover, the tissue to tissue ratio at 2 h worked out at 8 in [7] (tumor/blood) and 3.35 ± 0.64 in data set [7] (tumor/muscle).
